For this experiment, the system named is Pyrenophora teres. Nature of the experiment: activity against net blotch of barley caused by Pyrenophora teres, 1 day protective application. It is filed as in vivo. The conditions noted are these: individual active compound, 5 ppm in the spray liquor, barley seedlings cultivar Hanna, assessed after 6 days. The method, then: The active compounds were prepared separately as a stock solution comprising 25 mg of active compound which was made up to 10 ml using a mixture of acetone and/or DMSO and the emulsifier Uniperol® EL (wetting agent having emulsifying and dispersing action based on ethoxylated alkylphenols) in a volume ratio solvent:emulsifier of 99:1. The mixture was then made up with water to 100 ml. The active compounds or mixtures were mixed or diluted with water to the desired concentration.
Use example—activity against net blotch of barley caused by Pyrenophora teres, 1 day protective application
Leaves of potted barley seedlings of the cultivar “Hanna” were sprayed to runoff point with an aqueous suspension having the concentration of active compound stated below. 24 hours after the spray coating had dried on, the test plants were inoculated blotch pathogen. […] After 6 days, the extent of the development of the disease was determined visually in % infection of the entire leaf area.
The visually determined values for the percentages of infected leaf areas were converted into efficacies in % of the untreated control:
The efficacy (E) is calculated as follows using Abbot's formula: E=(1−α/β)·100 • α corresponds to the fungal infection of the treated plants in % and • β corresponds to the fungal infection of the untreated (control) plants in % […]

In the case of `CC1CCN(c2c(-c3c(F)cc(F)cc3F)c(Cl)nc3ncnn23)CC1` [I, 5-chloro-7-(4-methylpiperidin-1-yl)-6-(2,4,6-trifluorophenyl)[1,2,4]tri-azolo[1,5-a]pyrimidine], the “Efficacy in % of the untreated control” value was 72%.

The values above are taken from patent US20070197556A1, “Fungicidal Mixtures” (priority 2004, published 2007).
